What was measured:
[1] = test system: patients with biopsy-proven NASH and fibrosis stages 2-3; experiment: FLIGHT-FXR (NCT02855164) Part C interim analysis at week 12; type: in vivo, human
Description: Prespecified endpoints assessed at week 12 included overall safety and changes in alanine aminotransferase (ALT), hepatic fat fraction (HFF), gamma glutamyl transferase (GGT), and body weight.

NASH patients [2] = experiment: Parts A and B of study CLJN452A2202 in NASH patients, 12 weeks
human hepatocytes = experiment: In vitro human hepatocytes treated with FXR agonists: LDL uptake; type: cell-based; conditions: FIG. 5
Description: In addition, FXR agonist treatments have been associated with lipid abnormalities, including increases in peripheral LDL (Neuschwander-Tetri et al, The Lancet 2015; 385: 956-965). The reduction of the bile acid pathway by FXR agonists could lead to intracytoplasmic increase in cholesterol in the hepatocytes. Increase cholesterol in hepatocytes is associated with a counter mechanism of decrease LDL receptor on the surface of the cells (Goldstein et al Circulation. 1987 September;76(3):504-7). Such a decrease in the LDL receptor on the surface of the hepatocytes will ultimately result in an increase in circulating LDL; the phenotype observed in the clinics. […] To mitigate the increase in circulating LDL, it is proposed to administer a FXR agonist to the subjects in need thereof in the evening (e.g. from about 6 pm to about 12 pm, preferably from about 8 pm to about 11 pm, preferably around 9 pm) to reduce the impact of the FXR agonist on circulating LDL.
To mitigate the increase in peripheric LDL, we hypothesize that treating the subjects in the evening (from about 6 pm to about 12 pm, e.g. from about 8 pm to about 11 pm, preferably around 9 pm) would be reduce the impact of the drug on LDL. […]

NASH patients [3] = conditions: cited from earlier work
[4] = higher doses (140 μg, 200 μg), after 12 weeks of treatment
[5] = all doses (10, 30, 60 and 90 μg), 12 weeks

Question: For `O=C(O)c1cc(F)c2nc(N3C4CCC3CC(OCc3c(-c5ccccc5OC(F)(F)F)noc3C3CC3)C4)sc2c1` [Tropifexor, 2-[(1R,3r,5S)-3-({5-cyclopropyl-3-[2-(trifluoromethoxy)phenyl]-1,2-oxazol-4-yl}methoxy)-8-azabicyclo[3.2.1]octan-8-yl]-4-fluoro-1,3-benzothiazole-6-carboxylic acid], which “lipid changes that led to treatment discontinuation or dose reduction” value ([1]; 140 μg and 200 μg, 12 weeks) is on record?
Answer: Its value is “None”.

Question: What about the “low density lipoprotein-cholesterol (LDL-C)” value ([1]; 140 μg and 200 μg, 12 weeks) of the same compound?
Answer: Its value is “dose-related increase”.

Question: What about the “LS mean absolute change (SE) in ALT from baseline to Week 12” value ([1]; 140 μg once daily, N = 50) of the same compound?
Answer: Its value is −20.1 (4.57) U/L.

Question: What about the “LS mean absolute change (SE) in GGT from baseline to Week 12” value ([1]; 140 μg once daily, N = 50) of the same compound?
Answer: Its value is −39.2 (3.70) U/L.

Question: What about the “LS mean absolute change (SE) in body weight from baseline to Week 12” value ([1]; 140 μg once daily, N = 50) of the same compound?
Answer: The value was −2.46 (0.38) kg.

Question: What about the “frequency of serious adverse events” value ([1]; 140 μg, 200 μg and placebo groups) of the same compound?
Answer: The value was “low and comparable across groups”.

Question: And the “treatment discontinuation rate due to pruritus” value ([1]; 140 μg, n=1)?
Answer: The value was 2%.

Question: And the “prespecified endpoints at week 12” value ([1]; 200 μg)?
Answer: The value was “met”.

Question: And the “LS mean absolute change (SE) in ALT from baseline to Week 12” value ([1]; 200 μg once daily, N = 51)?
Answer: The value was −23.6 (4.48) U/L.

Question: What about the “LS mean absolute change (SE) in GGT from baseline to Week 12” value ([1]; 200 μg once daily, N = 51) of the same compound?
Answer: Its value is −40.9 (3.62) U/L.

Question: And the “LS mean absolute change (SE) in body weight from baseline to Week 12” value ([1]; 200 μg once daily, N = 51)?
Answer: Its value is −3.20 (0.37) kg.

Question: And the “treatment discontinuation rate due to pruritus” value ([1]; 200 μg, n=3)?
Answer: The value was 6%.

Question: What about the “patients with pruritus whose events were of mild (Grade 1) severity” value ([1]; both Tropifexor groups (140 μg, 200 μg)) of the same compound?
Answer: The value was over 60%.

Question: What about the “ALT, HFF, and body weight” value [1, 4] of the same compound?
Answer: Its value is “robust and dose-dependent decreases”.

Question: What about the safety and tolerability [1, 4] of the same compound?
Answer: The safety and tolerability was “good safety and tolerability”.

Question: What about the “biologic activity (GGT)” value (NASH patients [2]; 10 to 90 μg daily for 12 weeks) of the same compound?
Answer: The value was “clear dose response”.

Question: And the “target engagement (FGF19)” value (NASH patients [2]; 10 to 90 μg daily for 12 weeks)?
Answer: Its value is “clear dose response”.

Question: And the “efficacy based on biomarkers” value (NASH patients [2]; 60 and 90 μg, Week 12)?
Answer: Its value is “anti-inflammatory and anti-steatotic efficacy”.

Question: What about the “ALT compared to placebo” value (NASH patients [2]; [5]) of the same compound?
Answer: Its value is “reduced”.

Question: What about the “hepatic fat fraction compared to placebo” value (NASH patients [2]; [5]) of the same compound?
Answer: The value was “reduced”.

Question: And the tolerability (NASH patients [2]; up to 90 μg daily)?
Answer: The tolerability was “generally well tolerated”.

Question: For `O=C(O)c1ccnc(N2CC(O)(c3ccc(OCc4c(-c5c(Cl)cccc5Cl)noc4C4CC4)cc3Cl)C2)c1` [cilofexor], which “LDL uptake by hepatocytes” value (human hepatocytes) is on record?
Answer: Its value is “reduce the LDL uptake by hepatocytes in a dose dependent manner”.

Question: For `CC[C@H]1[C@@H](O)[C@@H]2[C@H](CC[C@]3(C)[C@@H]([C@H](C)CCC(=O)O)CC[C@@H]23)[C@@]2(C)CC[C@@H](O)C[C@@H]12` [obeticholic acid, 6α-ethyl-chenodeoxycholic acid], which “adverse effects of long term administration: pruritus” value (NASH patients [3]) is on record?
Answer: The value was “most common adverse effect”.

Question: What about the “lipid abnormalities: low density lipoprotein (LDL) cholesterol” value (NASH patients [3]; long term administration) of the same compound?
Answer: The value was “increased”.

Question: And the “LDL uptake by hepatocytes” value (human hepatocytes)?
Answer: Its value is “reduce the LDL uptake by hepatocytes in a dose dependent manner”.

From patent publication US20220265614A1, “TREATMENT COMPRISING FXR AGONISTS” (Novartis AG, priority 2019, published 2022)
